Results: patent publication US8937039B2, “Peptide-based peroxidase inhibitors and methods of using same” (The Medical College of Wisconsin, Inc., priority 2009, dated 2015)
Entries after “also recorded” stand apart in the source; their conditions may differ. Residues, ends and D or L forms follow the SMILES beside them.

Key:
MPO [1] = biological target: T1, MPO (Homo sapiens, UniProt P05164); assay: MPO-mediated LDL oxidation (conjugated diene formation, 234 nm); type: biochemical; set-up: purchased Lee Biosolutions (St. Louis, Mo.); settings: 25 μM; for MPO/H2O2/nitrite-mediated LDL oxidation (in words): H2O2 100 μM, NaNO2 100 μM; for MPO/H2O2-mediated LDL oxidation in the absence of nitrite (in words): without NaNO2
T1 sequence (P05164 49-745): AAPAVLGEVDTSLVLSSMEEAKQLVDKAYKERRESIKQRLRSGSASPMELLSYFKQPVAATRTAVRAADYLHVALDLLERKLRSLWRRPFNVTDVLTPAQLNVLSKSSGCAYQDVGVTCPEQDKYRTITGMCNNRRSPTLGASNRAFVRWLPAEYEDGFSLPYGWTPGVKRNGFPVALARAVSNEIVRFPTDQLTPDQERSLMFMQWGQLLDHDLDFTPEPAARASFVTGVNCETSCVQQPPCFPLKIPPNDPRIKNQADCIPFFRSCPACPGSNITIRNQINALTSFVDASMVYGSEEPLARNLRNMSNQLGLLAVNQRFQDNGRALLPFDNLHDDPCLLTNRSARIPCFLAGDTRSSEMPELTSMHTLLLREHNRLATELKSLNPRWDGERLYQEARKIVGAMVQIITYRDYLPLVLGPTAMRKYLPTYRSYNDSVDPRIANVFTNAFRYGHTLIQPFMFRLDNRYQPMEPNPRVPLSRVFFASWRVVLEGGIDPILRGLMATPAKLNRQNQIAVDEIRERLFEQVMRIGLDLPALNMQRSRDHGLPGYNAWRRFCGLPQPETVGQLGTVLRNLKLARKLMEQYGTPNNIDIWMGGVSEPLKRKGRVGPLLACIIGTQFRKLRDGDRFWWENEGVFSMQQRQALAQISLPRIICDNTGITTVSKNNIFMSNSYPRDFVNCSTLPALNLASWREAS
Description: MPO-mediated oxidation of LDL. […] LDL oxidation was monitored at 234 nm at room temperature on a HP UV/VIS spectrometer. Absorbance traces represent the average of duplicate experiments.
MPO-mediated LDL Oxidation. […] Rates of LDL oxidation were monitored at room temperature at 234 nm, the wavelength maximum for conjugated dienes.
MPO-mediated LDL Conjugated Diene Formation: Reaction mixtures contained LDL (0.15 mg/mL), NaNO2 (100 μM), H2O2 (100 μM), MPO (20 nM) and increasing concentrations of KYC or equimolar concentrations of various compounds in a phosphate buffer (100 mM, pH 7.4) containing DTPA (100 μM). Rates of LDL conjugated diene formation were determined by following changes in absorbance at 234 nm, the wavelength maximum for conjugated dienes, on a UV-Vis spectrophotometer (Agilent Model 8453) at room temperature.

MPO [2] = biological target: T1, MPO; settings: reported, order of magnitude; cited from earlier work
MPO [3] = biological target: T1, MPO; assay: MPO-catalyzed HOCl production (taurine/TMB assay); type: biochemical; set-up: purchased Lee Biosolutions (St. Louis, Mo.); settings: for Effect on MPO HOCl production at equimolar concentration (in words): 12.5 μM; for Dose-dependent effect on MPO-catalyzed HOCl production (in words): increasing concentrations, FIG. 14C/14D
Description: MPO-mediated HOCl Production. MPO (20 nM) was incubated with H2O2 (50 μM), NaCl (150 mM), taurine (5 mM) and increasing concentrations of KYC in phosphate buffer (100 mM, pH 7.4) which also contained diethylene triamine pentaacetic acid (DTPA, 100 μM) to prevent non-specific, divalent metal cation oxidation for 30 min. Reactions were halted by addition of catalase. Chlorotaurine was quantified using the 3,3-,5,5-tetramethylbenzidine (TMB) assay. Briefly, 400 μL of reaction solution was mixed with 100 μL of 2 mM TMB, 100 μM NaI containing 10% dimethylformamide (DMF) in 400 mM acetate buffer (pH 5.4). After 5 min, absorbance (650 nm) was recorded on a UV/Vis spectrophotometer (Agilent Model 8453).
MPO-catalyzed HOCl Production: MPO (20 nM) was incubated with H2O2 (50 μM), NaCl (150 mM), taurine (5 mM) and increasing concentrations of KYC in a phosphate buffer (100 mM, pH 7.4) containing diethylene triamine pentaacetic acid (DTPA, 100 μM) to prevent non-specific, divalent metal cation oxidation for 30 min. Reactions were halted by addition of catalase (2,000 units/mL). Chlorotaurine was quantified using the TMB assay (66). Briefly, 400 μL of reaction solution was mixed with 100 μL of 2 mM TMB, 100 μM NaI containing 10% dimethylformamide (DMF) in 400 mM acetate buffer (pH 5.4). After 5 min, absorbance (650 nm) was recorded on a UV/Vis spectrophotometer (Agilent Model 8453).

SS/Mcw rat hearts = assay: Ischemia/reperfusion injury in isolated perfused hearts; settings: FIG. 5B
Source text: Ischemia/Reperfusion (I/R) Injury in Isolated Hearts. Rats used in this study received humane care in compliance with the Guide for the Care and Use of Laboratory Animals, by the National Research Council. Rats were maintained on a low salt (0.4% NaCl) diet with unlimited access to water. Environmental influences were minimized by maintaining rats in identical housing conditions. Dahl S (SS/Mcw male rats at 8 weeks of age were used for this study.
Modified Krebs-Henseleit bicarbonate buffer was prepared containing the following components (in mM): 118.5 NaCl, 25.0 NaHCO3, 4.8 KCl, 1.2 MgSO4.6H2O, and 1.2 KH2PO4 (pH 7.4 when gassed with 95% O2-5% CO2) in which the calcium content was 1.8. Glucose (11.1 mM) was added to the perfusate. Before use, all perfusion fluids were filtered through cellulose acetate membranes with a pore size of 5 μm. To this perfusate, drugs (KAA, KYC) were added as needed. Animals were weighed, and heparin was administered intraperitoneally based on weight (150 IU/kg). Anesthesia was induced with pentobarbital sodium (30 mg/kg ip). […] Left ventricular pressure (LVP) was measured isovolumetrically with a transducer connected to a thin, saline-filled latex balloon inserted into the left ventricle through the mitral valve from an incision in the left atrium. […]

[4] = Solubility in aqueous buffers; type: physicochemical

| MPO/H2O2/nitrite-mediated LDL oxidation (in words) (MPO [1]) | MPO/H2O2-mediated LDL oxidation in the absence of nitrite (in words) (MPO [1]) | Compound | other results |
| --- | --- | --- | --- |
| did not inhibit but actually enhanced | increased | N[C@@H](Cc1c[nH]c2ccccc12)C(=O)O [Trp, tryptophan] | Effect on MPO HOCl production at equimolar concentration (in words) (MPO [3]): effective inhibitor |
| accelerated LDL oxidation | – | N-acetyl Lysyltyrosylcyeteine amide [KYS] | Dose-dependent effect on MPO-catalyzed HOCl production (in words) (MPO [3]): failed to inhibit; also recorded: not an inhibitor |
| accelerated and enhanced | increased | N[C@@H](Cc1ccc(O)cc1)C(=O)O [Tyr, tyrosine] | Effect on MPO HOCl production at equimolar concentration (in words) (MPO [3]): little, if any effect; Effect on MPO HOCl production at equimolar concentration (in words) (MPO [3]; listed as Tyrosine): little if any effect |
| – | – | CC(=O)N[C@@H](CCCCN)C(=O)N[C@@H](Cc1c[nH]c2ccccc12)C(=O)N[C@@H](CS)C(N)=O [KWC] (Ac-Lys-Trp-Cys-NH2) | Cardioprotection in SS/Mcw rat hearts (in words) (SS/Mcw rat hearts): increase cardioprotection |
| – | – | N[C@@H](Cc1ccc(O)cc1)C(=O)N[C@@H](CS)C(=O)O [YC, reference compound] (H-Tyr-Cys-OH; N-terminus and C-terminus assumed) | Solubility in water / aqueous buffers (in words) [4]: difficult to dissolve in aqueous buffers |

| Compound | MPO/H2O2/nitrite-mediated LDL oxidation (in words) (MPO [1]) | MPO/H2O2-mediated LDL oxidation in the absence of nitrite (in words) (MPO [1]) | other results |
| --- | --- | --- | --- |
| N[C@@H](CCC(=O)N[C@@H](CS)C(=O)NCC(=O)O)C(=O)O [GSH, glutathione] | ineffective | inhibited; also recorded: did not increase LDL oxidation | Rate of reaction with MPO/H2O2 systems (MPO [2]): 10 to 100 M⁻¹ s⁻¹ |
| CC(=O)N[C@@H](CCCCN)C(=O)N[C@@H](Cc1ccccc1)C(=O)N[C@@H](CS)C(N)=O [KFC, N-acetyl Lysylphenylalanylcysteine amid] (Ac-Lys-Phe-Cys-NH2) | increased the lag phase and delayed, but did not totally inhibit | – | Dose-dependent effect on MPO-catalyzed HOCl production (in words) (MPO [3]): weaker inhibitor |
